# Molecular target: T1, 14-3-3γ/RND3 complex (Homo sapiens, UniProt P61587+P61981)
# T1 construct: RND3 pS240, PDB 8BFC; made in house; host or cells: E. coli NiCo21 (DE3)
# Experiment: FA / TD-FA selectivity screen, RND3 client peptide
# Type: binding
# Settings: 100 μM compound; for effect on 14-3-3γ/RND3 complex at short time lengths / effect on RND3 binding to 14-3-3γ over time: TD-FA
# Description: Drugging the hub protein 14-3-3 raises the challenge of selectivity, given that 14-3-3 binds several hundred phosphoprotein partners (Figure 4a).[54] We hypothesized that the interplay of chemical reactivity, the topology, and functionality of the composite binding pocket shaped by 14-3-3 and the interaction partner drives selective stabilization of the 14-3-3/ERRγ complex.[53] To validate selectivity, molecular locks 5 and 10 were tested against a panel of nine 14-3-3 client peptides in an FA assay, and the SF100 was determined for each 14-3-3 PPI (Figure 4b and Figures S18–S20). This client panel contained a diverse representation of 14-3-3 binding proteins, differing for example in size and hydrophobicity of the +1 amino acid. Importantly, clients PKR and RND3, each containing a +1 Cys, were included in the panel.
# To further assess off-target reactivity to +1 Cys-containing peptides, fragment 1, locks 5 and 10 were also screened against PKR and RND3 in the TD-FA assay.
# Figure S20. KD and SF100 plot – selectivity screen. […]
# nine different client peptides in presence of DMSO (negative control) or 100 µM of compound 1, 5 or 10 (based on binding curves in Figure S19). Also a bar plot representation of stabilization factor (SF100) of compounds 1, 5 and 10 for each of these peptides (bottom plot).
# (1 picture or pasted object on this page, not shown here)
# Experimental Section Biophysical Assays
# 14-3-3γ protein expression (FA, TSA, MS assays)
# A pPROEX HTb expression vector encoding the human 14-3-3 protein gamma (14-3-3γ) with a N-terminal his6-tag was transformed by heat shock into NiCo21 (DE3) competent cells. Single colonies were cultured in 50 mL LB medium (100 µg/mL ampicillin). After overnight incubation at 37 °C, cultures were transferred to 2 L TB media (100 µg/mL ampicillin, 1 mM MgCl2) and incubated at 37 °C until an OD600 nm of 0.8 -1.2 was reached. Protein expression was then induced with 0.4 mM isopropyl-β-d-thiogalactoside (IPTG), and cultures were incubated overnight at 18 °C. Cells were harvested by centrifugation (8600 rpm, 20 minu tes, 4 °C) and resuspended in lysis buffer (50 mM Hepes, pH 8.0, 300 mM NaCl, 12.5 mM imidazole, 5 mM MgCl2, 2 mM βME) containing cOmplete™ EDTA-free Protease Inhibitor Cocktail tablets (1 tablet/100 ml lysate) and benzonase ( 5 µl/100 ml). After lysis using a C3 Emulsiflex-C3 homogenizer (Avestin), the cell lysate was cleared by centrifugation (20000 rpm, 30 minutes, 4 °C) and purified using Ni2+-affinity chromatography (Ni -NTA superflow cartridges, Qiagen). Typically two 5 mL columns (flow 5 mL/min) were use d for a 2 L culture in which the lysate was loaded on the column , washed with 10 CV wash buffer (50 mM Hepes, pH 8.0, 300 mM NaCl, 25 mM imidazole, 2 mM βME), and eluted in several fractions (2-4 CV) of elution buffer (50 mM Hepes, pH 8.0, 300 mM NaCl, 250 mM imidazole, 2 mM βME). Fractions containing the 14 -3-3 protein were combined and dialyzed into 25 mM HEPES pH 8.0, 100 mM NaCl, 10 mM MgCl2, 500 µM TCEP. Finally, the protein was concentrated to ∼60 mg/mL, analyzed Q-Tof LC/MS, and aliquots were flash-frozen for storage at −80 °C.
# 14-3-3σΔc C38N protein expression (Crystallography)
# A pPROEX HTb expression vector encoding the human 14-3-3 protein sigma truncated after T231 (14-3-3σΔc), mutated C38N, and containing a N-terminal his6-tag was transformed by heat shock into NiCo21 (DE3) competent cells. Single colonies were cultured in 50 mL LB medium (100 µg/mL ampicillin). After overnight incubation at 37 °C, cultures were transferred to 2 L TB media (100 µg/mL ampicillin, 1 mM MgCl2) and incubated at 37 °C until an OD600 nm of 0.8-1.2 was reached. Protein expression was then induced with 0.4 mM isopropyl-β-d-thiogalactoside (IPTG), and cultures were incubated overnight at 18 °C. Cells were harvested by centrifugation (8600 rpm, 20 minutes, 4 °C) and resuspended in lysis buffer (50 mM Hepes, pH 8.0, 300 mM NaCl, 12.5 mM […]
# T1 sequence (P61981 whole entry, other chains not shown): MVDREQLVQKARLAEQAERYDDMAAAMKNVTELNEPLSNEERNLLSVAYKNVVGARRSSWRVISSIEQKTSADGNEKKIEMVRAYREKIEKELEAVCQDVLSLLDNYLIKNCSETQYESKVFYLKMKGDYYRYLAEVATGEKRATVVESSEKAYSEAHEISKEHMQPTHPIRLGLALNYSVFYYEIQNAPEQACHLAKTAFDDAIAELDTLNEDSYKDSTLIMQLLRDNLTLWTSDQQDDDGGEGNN
SMILES,effect on 14-3-3γ/RND3 complex at short time lengths,effect on RND3 binding to 14-3-3γ over time,SF100 (RND3 peptide)
CN(C)CCSSCCN(C)C(=O)c1ccc(C=O)c(F)c1 [compound 5],immediate destabilization,,
"CN(C)CCSSCCN(C)C(=O)c1cccc(F)c1 [compound 1, reference compound]",immediate destabilization,remains an inhibitor,
CN(C)CCSSCCN(C)C(=O)c1cc(Br)cc(C=O)c1 [compound 10],immediate destabilization,enhancement in RND3 binding,~7.9

# From publication PMC10064330, “Reversible Dual-Covalent Molecular Locking of the 14-3-3/ERRγ Protein–Protein Interaction as a Molecular Glue Drug Discovery Approach” (Journal of the American Chemical Society, 2023)
